Laboratory results as given in paper PMC4224687 (Journal of Controlled Release, 2014).

Format: in vivo, male Sprague-Dawley rats
Details: rats, saline solution, 50 mg/kg

Compound: CO[C@H]1O[C@H](COS(=O)(=O)O)[C@@H](O[C@@H]2O[C@@H](C(=O)O)[C@@H](O[C@H]3O[C@H](COS(=O)(=O)O)[C@@H](O[C@@H]4O[C@H](C(=O)O)[C@@H](O[C@H]5O[C@H](COS(=O)(=O)O)[C@@H](O)[C@H](O)[C@H]5NS(=O)(=O)O)[C@H](O)[C@H]4O)[C@H](OS(=O)(=O)O)[C@H]3NS(=O)(=O)O)[C@H](O)[C@H]2OS(=O)(=O)O)[C@H](O)[C@H]1NS(=O)(=O)O [Fpx, Fondaparinux]
- oral absorption: not absorbed
